From US9376492B2, “Treatment of cancer” (Asclepiumm Limited, priority 2009, dated 2016)
“Also recorded” adds a separate entry of the source.

Legend:
[1] = system: human breast cancer MCF7 cells; experiment: Cell invasion assay (Matrigel), MCF7; type: cell-based; conditions: human breast cancer MCF7 cells in Matrigel
Procedure: Cell Invasion Assay: Growth Factor-Reduced Matrigel™ Matrix (BD, Becton Dickinson Biosciences, Bedford, Mass., USA) was thawed in the fridge one day prior to its use. The Matrigel matrix was mixed by pre-cooled pipettes to homogeneity on ice. Four μl of the cell suspension (1×10^6 cells/ml) in standard medium without (Control) or with 1 μl different concentrations of antibody or peptide was mixed with 95 μl of Matrigel matrix in a cold Eppendorf tube. After thorough mixing using cooled pipettes, 30 μl of the cells in the Matrigel mixture was added to 48-well plates. The plates were incubated at 37° C. in a CO2 incubator for 1 h to polymerize the droplet mixtures. 250 μl of standard medium was added to cover the cell/Matrigel droplet and incubated for several days. Blindly-selected cell invasion images were recorded in four areas within a cell/Matrigel droplet by a Nikon 4500 Coolpix digital camera under the microscope.

[2] = system: MDCK cells; experiment: Blocking EMT assay (HGF/SF-induced EMT); type: cell-based; conditions: 2.5 ng/ml HGF/SF, 24 h
Procedure: Blocking EMT Assay: Antibodies or peptides were added to 10% sub-confluent MDCK cells cultured in standard medium with 2.5 ng/ml HGF/SF in 96-well plates for 24 h. EMT was induced by HGF/SF in MDCK cells without any antibody or peptide treatment. The effects of different antibodies and peptides in blocking EMT were investigated by adding different concentrations of them to 10% sub-confluent MDCK cells cultured in standard medium with 2.5 ng/ml HGF/SF.

Row | Sequence | inhibition of cell invasion ability [1] | inhibition of EMT [2]
1 | EELSAAHTLV (listed as Homo sapiens) [Peptide 7] | significantly inhibited | significantly blocked; also recorded: significantly inhibited
2 | KINATDADEPNTLNSKISYR (listed as Homo sapiens) [Peptide 4] | significantly inhibited | significantly blocked; also recorded: significantly inhibited
